From PMC7725003, “Systematically Studying the Optimal Amino Acid Distribution Patterns of the Amphiphilic Structure by Using the Ultrashort Amphiphiles” (Frontiers in Microbiology, 2020)
Where no end group is shown, it is not given here.

Key:
[1] = test system: E. coli 25922; assay type: cell-based, Escherichia coli; conditions: 25922, 24 h
Procedure, shortened: (§1)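 Broth microdilution in MHB with mid-log bacteria at 0.5–1 × 10^6 CFU/mL and peptides serially diluted in 0.2% BSA, 24 h at 37 °C. MIC is lowest concentration giving 95% growth inhibition by A492; MBC is lowest concentration killing >99.9% on overnight agar subculture.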

[2] = test system: E. coli O78; assay type: cell-based, Escherichia coli; conditions: O78, 24 h
Procedure, shortened: as §1

[3] = test system: E. coli UB1005; assay type: cell-based, Escherichia coli; conditions: UB1005, 24 h
Procedure, shortened: as §1

[4] = test system: S. typhimurium 14028; assay type: cell-based, Salmonella typhimurium; conditions: 14028, 24 h
Procedure, shortened: as §1

[5] = test system: S. typhimurium 7731; assay type: cell-based, Salmonella typhimurium; conditions: 7731, 24 h
Procedure, shortened: as §1

[6] = test system: S. pullorum 7913; assay type: cell-based, Salmonella pullorum; conditions: 7913, 24 h
Procedure, shortened: as §1

[7] = test system: P. aeruginosa 27853; assay type: cell-based, Pseudomonas aeruginosa; conditions: 27853, 24 h
Procedure, shortened: as §1

[8] = test system: S. aureus 25923; assay type: cell-based, Staphylococcus aureus; conditions: 25923, 24 h
Procedure, shortened: as §1

[9] = test system: S. aureus 29213; assay type: cell-based, Staphylococcus aureus; conditions: 29213, 24 h
Procedure, shortened: as §1

[10] = test system: S. epidermidis 12228; assay type: cell-based, Staphylococcus epidermidis; conditions: 12228, 24 h
Procedure, shortened: as §1

[11] = test system: B. subtilis 63501; assay type: cell-based, Bacillus subtilis; conditions: 63501, 24 h
Procedure, shortened: as §1

[12] = test system: E. faecalis 29212; assay type: cell-based, Enterococcus faecalis; conditions: 29212, 24 h
Procedure, shortened: as §1

[13] = test system: Listeria monocytogenes CGMCC 1.1075; assay type: cell-based; conditions: CGMCC 1.1075, 24 h
Procedure, shortened: as §1

[14] = test system: all of the tested bacterial strains; test: Geometric mean of MICs, all tested bacterial strains; assay type: cell-based; conditions: for GM, All: geometric mean of MICs across all tested strains; for TI, All: therapeutic index TI = MHC/GM MIC
Procedure, shortened: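 Mid-log bacteria at 0.5–1 × 10^6 CFU mL^–1 in MHB with peptides serially diluted in 0.2% BSA, 24 h at 37°C. MIC is the lowest concentration giving 95% growth inhibition by A492. MBC is the lowest giving >99.9% kill on agar subculture, and the GM is taken over all strains.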

[15] = test system: S. aureus 29213; test: Salt sensitivity assay (MIC); assay type: cell-based, Staphylococcus aureus; conditions: for MIC, FeCl3: 4 μM FeCl3; for MIC, NH4Cl: 6 μM NH4Cl; for MIC, ZnCl2: 8 μM ZnCl2; for MIC, MgCl2: 1 mM MgCl2; for MIC, CaCl2: 2 mM CaCl2; for MIC, KCl: 4.5 mM KCl; for MIC, NaCl: 150 mM NaCl; for MIC, Control: no added salt, three independent assays
Procedure, shortened: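 MICs determined by broth microdilution in MHB with 0.5–1 × 10^6 CFU/mL, peptides serially diluted in 0.2% BSA, 24 h at 37°C. Medium supplemented with physiological salts (150 mM NaCl, 4.5 mM KCl, 6 μM NH4Cl, 8 μM ZnCl2, 1 mM MgCl2, 2mM CaCl2, 4 μM FeCl3). MIC = lowest concentration inhibiting 95% growth (A492).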

[16] = test system: S. aureus 29213; test: Time-kill kinetics; assay type: cell-based, Staphylococcus aureus; conditions: 1 × MIC concentration (Figure 5 legend: 1× MBC); mean of three independent experiments
From the text: The kinetics of the sterilization activity of the peptide was further evaluated. […] The results of the kinetic were the mean values of three independent experiments, and each independent experiment contained three technical replicates.

[17] = test system: P. aeruginosa ATCC 27853; assay type: cell-based, Pseudomonas aeruginosa; conditions: after 30 sequential passages in sub-MBC concentrations
Experimental: Finally, P. aeruginosa ATCC 27853 was used as the model of the drug resistance study. […] The MBC values of the drugs against every two passage’s cells were tested. As a control, MBCs were also tested using cells that were serially passaged in fresh MHB without drugs. The assay was conducted independently in triplicate with three biological replicates.

[18] = test system: E. coli ATCC 25922; test: Outer membrane permeabilization (NPN uptake); assay type: cell-based, Escherichia coli; conditions: at 16 μM peptide
Experimental: Mid-log phase E. coli ATCC 25922 cells (OD600 = 0.2) were incubated with NPN (10 μM) in 5 mM HEPES buffer (pH 7.4, containing 5 mM glucose) for 30 min. The background fluorescence was recorded for subtraction (excitation λ = 350 nm, emission λ = 420 nm) with an F-4500 fluorescence spectrophotometer (Hitachi, Japan). Subsequently, 100 μL of cell suspension was mixed with equal volumes of the peptide solution at concentrations that ranged from 1 to 64 μM in a sterile 96-well black plate. The fluorescence was recorded over time until no further fluorescence increase was detectable. Each test was performed independently in triplicate, and the results were converted to the percentage of NPN uptake using the equation:
where Fobs is the observed fluorescence at a given peptide concentration, F0 is the initial fluorescence of NPN with microbial cells in the absence of peptide, and F100 is the fluorescence of NPN with microbial cells upon the addition of 10 μg/mL polymyxin B (Sigma) (for bacteria) as a positive control.

Substance | MBC [1] [µM] | MIC [1] [µM] | MBC [2] [µM] | MIC [2] [µM] | MBC [3] [µM] | MIC [3] [µM] | MBC [4] [µM] | MIC [4] [µM] | MBC [5] [µM] | MIC [5] [µM] | MBC [6] [µM] | MIC [6] [µM] | MBC [7] [µM] | MIC [7] [µM] | MBC [8] [µM] | MIC [8] [µM] | MBC [9] [µM] | MIC [9] [µM] | MBC [10] [µM] | MIC [10] [µM] | other results
RLRLRLRLL-NH2 [L5] | 4 | 2 | 4 | 2 | 8 | 4 | 8 | 4 | 8 | 4 | 4 | 2 | 16 | 8 | 16 | 8 | 16 | 8 | 16 | 8 | MBC [11]: 2 µM; MIC [11]: 1 µM; MBC [12]: 32 µM; MIC [12]: 16 µM; MBC [13]: 8 µM; MIC [13]: 4 µM; GM, All [14]: 4.18 µM; TI, All [14]: 61.24; MIC, FeCl3 [15]: 8 µM; MIC, NH4Cl [15]: 8 µM; MIC, ZnCl2 [15]: 8 µM; MIC, MgCl2 [15]: 8 µM; MIC, CaCl2 [15]: 16 µM; MIC, KCl [15]: 8 µM; MIC, NaCl [15]: 64 µM; MIC, Control [15]: 8 µM; time to clear off the growth of 99.99% of bacteria [16]: ≤ 0.08 min; resistance development [17]: minimal; outer membrane permeabilization (NPN uptake) [18]: approximately 50%
RWRWRWRWW-NH2 [W5] | 4 | 2 | 8 | 4 | 4 | 2 | 8 | 4 | 8 | 4 | 4 | 2 | 8 | 4 | 4 | 2 | 4 | 2 | 4 | 2 | MBC [11]: 2 µM; MIC [11]: 1 µM; MBC [12]: 8 µM; MIC [12]: 4 µM; MBC [13]: 4 µM; MIC [13]: 2 µM; GM, All [14]: 2.38 µM; TI, All [14]: 107.56; MIC, FeCl3 [15]: 1 µM; MIC, NH4Cl [15]: 2 µM; MIC, ZnCl2 [15]: 2 µM; MIC, MgCl2 [15]: 4 µM; MIC, CaCl2 [15]: 2 µM; MIC, KCl [15]: 4 µM; MIC, NaCl [15]: 2 µM; MIC, Control [15]: 2 µM; time to clear off the growth of 99.99% of bacteria [16]: ≤ 3 min; resistance development [17]: minimal; outer membrane permeabilization (NPN uptake) [18]: approximately 100%
